Measurements reported in PubChem BioAssay (NCI).
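Protocol summary: plate cells (96-well), add compound at 5 concentrations, incubate 48 h, interpolate endpoints linearly. The concentration for 50% growth inhibition is given as GI50. TGI denotes the concentration required for complete inhibition of growth.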

Experiments:
Experiment in all cases: inhibition of tumour cell growth, NCI panel, 48 h
[1] = system: UO-31 renal
[2] = system: OVCAR-8 ovarian
[3] = system: UACC-257 melanoma
[4] = system: HOP-62 NSCLC
[5] = system: A498 renal
[6] = system: MOLT-4 leukemia
[7] = system: SK-MEL-2 melanoma
[8] = system: MDA-MB-231 breast
[9] = system: MALME-3M melanoma
[10] = system: NCI-H226 lung
[11] = system: TK-10 renal
[12] = system: SN12C renal
[13] = system: U251 CNS
[14] = system: SW-620 colon
[15] = system: SK-MEL-5 melanoma
[16] = system: 786-0 renal
[17] = system: SNB-19 CNS
[18] = system: MCF7 breast
[19] = system: K-562 leukemia
[20] = system: BT-549 breast
[21] = system: HOP-92 NSCLC
[22] = system: OVCAR-5 ovarian
[23] = system: DU-145 prostate
[24] = system: COLO 205 colon
[25] = system: LOX IMVI melanoma
[26] = system: ACHN renal
[27] = system: SF-268 CNS
[28] = system: SNB-75 CNS

**Q.** With COc1ccc(CC(C)=C(c2ccc(OCCN3CCCCCC3)cc2)c2ccc(OCCN3CCCCCC3)cc2)cc1 as the compound, how does the GI50 [1] read?
**A.** 0.308 µM

**Q.** And the TGI [1]?
**A.** 0.929 µM

**Q.** And the GI50 [2]?
**A.** 0.607 µM

**Q.** What about the TGI [2] of the same compound?
**A.** 1.45 µM

**Q.** And the GI50 [3]?
**A.** 0.108 µM

**Q.** What about the TGI [3] of the same compound?
**A.** 0.262 µM

**Q.** And the GI50 [4]?
**A.** 0.626 µM

**Q.** And the TGI [4]?
**A.** 1.28 µM

**Q.** What about the GI50 [5] of the same compound?
**A.** 0.513 µM

**Q.** What about the TGI [5] of the same compound?
**A.** 1.2 µM

**Q.** And the GI50 [6]?
**A.** 0.133 µM

**Q.** And the TGI [6]?
**A.** 0.406 µM

**Q.** What about the GI50 [7] of the same compound?
**A.** 0.756 µM

**Q.** What about the TGI [7] of the same compound?
**A.** 1.5 µM

**Q.** And the GI50 [8]?
**A.** 0.176 µM

**Q.** What about the TGI [8] of the same compound?
**A.** 0.487 µM

**Q.** And the GI50 [9]?
**A.** 0.09 µM

**Q.** What about the TGI [9] of the same compound?
**A.** 0.171 µM

**Q.** What about the GI50 [10] of the same compound?
**A.** 0.531 µM

**Q.** And the TGI [10]?
**A.** 1.42 µM

**Q.** What about the GI50 [11] of the same compound?
**A.** 0.729 µM

**Q.** What about the TGI [11] of the same compound?
**A.** 1.47 µM

**Q.** And the GI50 [12]?
**A.** 0.657 µM

**Q.** What about the TGI [12] of the same compound?
**A.** 1.35 µM

**Q.** And the GI50 [13]?
**A.** 0.107 µM

**Q.** And the TGI [13]?
**A.** 0.259 µM

**Q.** And the GI50 [14]?
**A.** 0.089 µM

**Q.** What about the TGI [14] of the same compound?
**A.** 0.179 µM

**Q.** What about the GI50 [15] of the same compound?
**A.** 0.119 µM

**Q.** And the TGI [15]?
**A.** 0.312 µM

**Q.** What about the GI50 [16] of the same compound?
**A.** 0.0838 µM

**Q.** And the TGI [16]?
**A.** 0.159 µM

**Q.** What about the GI50 [17] of the same compound?
**A.** 0.232 µM

**Q.** And the TGI [17]?
**A.** 0.817 µM

**Q.** What about the GI50 [18] of the same compound?
**A.** 0.0872 µM

**Q.** What about the TGI [18] of the same compound?
**A.** 0.187 µM

**Q.** What about the GI50 [19] of the same compound?
**A.** 0.0987 µM

**Q.** What about the TGI [19] of the same compound?
**A.** 0.22 µM

**Q.** And the GI50 [20]?
**A.** 0.681 µM

**Q.** And the TGI [20]?
**A.** 1.37 µM

**Q.** What about the GI50 [21] of the same compound?
**A.** 0.254 µM

**Q.** And the TGI [21]?
**A.** 0.986 µM

**Q.** And the GI50 [22]?
**A.** 0.631 µM

**Q.** And the TGI [22]?
**A.** 1.26 µM

**Q.** What about the GI50 [23] of the same compound?
**A.** 0.275 µM

**Q.** And the TGI [23]?
**A.** 0.879 µM

**Q.** And the GI50 [24]?
**A.** 0.0944 µM

**Q.** What about the TGI [24] of the same compound?
**A.** 0.182 µM

**Q.** And the GI50 [25]?
**A.** 0.0875 µM

**Q.** And the TGI [25]?
**A.** 0.161 µM

**Q.** What about the GI50 [26] of the same compound?
**A.** 0.135 µM

**Q.** What about the TGI [26] of the same compound?
**A.** 0.374 µM

**Q.** And the GI50 [27]?
**A.** 0.474 µM

**Q.** What about the TGI [27] of the same compound?
**A.** 1.15 µM

**Q.** What about the GI50 [28] of the same compound?
**A.** 0.487 µM
